Where two headings read alike, the source gives them in different places.
Tests used:
AOL = biological target: T1, AOL (Aspergillus oryzae, UniProt Q2UNX8); test: hemagglutination inhibition, microscope detection; format: biochemical; conditions: PBS, room temperature, lectin 0.05 mg/mL
T1 construct: gene fleA; purchased freeze-dried (TCI); dimer
T1 sequence (Q2UNX8 1-311): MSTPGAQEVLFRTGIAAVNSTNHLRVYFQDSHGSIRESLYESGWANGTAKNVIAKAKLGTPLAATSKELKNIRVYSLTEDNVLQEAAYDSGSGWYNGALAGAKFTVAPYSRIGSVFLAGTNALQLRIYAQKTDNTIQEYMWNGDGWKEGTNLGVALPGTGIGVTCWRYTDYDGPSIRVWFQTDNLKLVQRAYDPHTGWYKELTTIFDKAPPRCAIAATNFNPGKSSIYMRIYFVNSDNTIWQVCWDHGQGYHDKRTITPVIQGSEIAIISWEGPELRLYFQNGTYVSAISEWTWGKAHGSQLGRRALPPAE
Excerpt: hemagglutination inhibition, microscope detection on AOL

AAL = biological target: T2, AAL (Aleuria aurantia, UniProt P18891); test: hemagglutination inhibition, microscope detection; format: biochemical; conditions: PBS, room temperature, lectin 0.05 mg/mL
T2 construct: purchased freeze-dried (Vector Laboratories); dimer
T2 sequence (P18891 2-313): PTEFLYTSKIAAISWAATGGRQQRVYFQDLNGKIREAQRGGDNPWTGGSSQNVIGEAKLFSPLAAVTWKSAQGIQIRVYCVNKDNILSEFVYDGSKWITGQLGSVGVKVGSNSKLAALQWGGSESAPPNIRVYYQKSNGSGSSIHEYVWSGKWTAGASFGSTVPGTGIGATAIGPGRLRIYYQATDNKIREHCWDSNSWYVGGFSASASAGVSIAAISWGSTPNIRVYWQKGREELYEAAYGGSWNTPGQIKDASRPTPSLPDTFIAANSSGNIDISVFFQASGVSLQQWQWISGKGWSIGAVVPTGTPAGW
Excerpt: hemagglutination inhibition, microscope detection on AAL

BC2L-C = biological target: T3, BC2L-C (Burkholderia cenocepacia, UniProt B4EH86); test: hemagglutination inhibition, microscope detection; format: biochemical; conditions: human 0+ papain-treated red blood cells, 20 mM Tris/HCl, 150 mM NaCl, 5 mM CaCl2, pH 7.5, room temperature, lectin 0.1 mg/mL, semi-quantitative
T3 construct: gene BCAM0185; recombinant in E. coli; D-mannose-agarose purified; N-terminal domain (fucose site) is a trimer
Excerpt: hemagglutination inhibition, microscope detection on BC2L-C

PA-IIL (LecB) = biological target: T4, PA-IIL (LecB) (Pseudomonas aeruginosa, UniProt Q9HYN5); test: hemagglutination inhibition, microscope detection; format: biochemical; conditions: 20 mM Tris/HCl, 150 mM NaCl, 5 mM CaCl2, pH 7.5, room temperature, lectin 1.25 mg/mL
T4 construct: recombinant in E. coli, D-mannose-agarose purified; homotetramer, two calcium ions per site
Excerpt: hemagglutination inhibition, microscope detection on PA-IIL (LecB)

RSL = RSL (Ralstonia pseudosolanacearum, UniProt Q8XXK6); conditions: PBS, room temperature, lectin 0.05 mg/mL
AFL = biological target: T5, AFL (Aspergillus fumigatus, UniProt Q4WW81); test: hemagglutination inhibition, microscope detection; format: biochemical; conditions: PBS; room temperature; lectin 0.05 mg/mL; valency 1
T5 construct: gene fleA; dimer of six-bladed beta-propellers
Excerpt: hemagglutination inhibition, microscope detection on AFL

T3 sequence (B4EH86 entry or part of it): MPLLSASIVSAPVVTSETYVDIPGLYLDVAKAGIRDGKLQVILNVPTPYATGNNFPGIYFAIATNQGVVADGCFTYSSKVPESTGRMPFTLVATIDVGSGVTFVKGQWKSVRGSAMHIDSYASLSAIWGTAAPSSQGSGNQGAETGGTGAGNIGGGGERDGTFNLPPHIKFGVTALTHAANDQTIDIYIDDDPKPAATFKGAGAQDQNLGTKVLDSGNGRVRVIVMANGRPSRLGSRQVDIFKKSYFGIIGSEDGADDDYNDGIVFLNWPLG
T4 sequence (Q9HYN5 entry or part of it): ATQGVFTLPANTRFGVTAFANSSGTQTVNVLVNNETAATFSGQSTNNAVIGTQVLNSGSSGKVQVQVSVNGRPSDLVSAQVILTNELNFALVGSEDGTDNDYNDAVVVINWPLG
T5 sequence (Q4WW81 whole entry): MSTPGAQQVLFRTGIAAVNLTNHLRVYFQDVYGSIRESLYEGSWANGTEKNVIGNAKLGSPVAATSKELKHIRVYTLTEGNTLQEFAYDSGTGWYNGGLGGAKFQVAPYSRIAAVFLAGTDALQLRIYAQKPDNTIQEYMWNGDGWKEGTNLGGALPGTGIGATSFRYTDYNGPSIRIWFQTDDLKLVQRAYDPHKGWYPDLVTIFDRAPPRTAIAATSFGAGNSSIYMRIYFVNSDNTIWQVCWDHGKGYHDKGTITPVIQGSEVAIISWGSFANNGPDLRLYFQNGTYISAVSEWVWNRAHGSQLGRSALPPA

C[C@@H]1O[C@@H](OCc2cn(CCOCCOCCOCCn3cc(COCC(COCc4cn(CCOCCOCCOCCn5cc(CO[C@@H]6O[C@@H](C)[C@@H](O)[C@@H](O)[C@@H]6O)nn5)nn4)(COCc4cn(CCOCCOCCOCCn5cc(CO[C@@H]6O[C@@H](C)[C@@H](O)[C@@H](O)[C@@H]6O)nn5)nn4)COCc4cn(CCOCCOCCOCCn5cc(CO[C@@H]6O[C@@H](C)[C@@H](O)[C@@H](O)[C@@H]6O)nn5)nn4)nn3)nn2)[C@@H](O)[C@H](O)[C@@H]1O [compound 2, Compound 2]
RSL / β^# (AOL; 0+ papain-treated red blood cells, semi-quantitative, valency 4): 256 fold vs L-fucose
AFL / Potency (AAL; valency 4): 128 fold vs L-fucose
BC2L-C / Potency (BC2L-C; valency 4): 16 fold vs L-fucose
AFL / β^# (PA-IIL (LecB); valency 4): 32 fold vs L-fucose
RSL / Potency (RSL; valency 4): 1024 fold vs L-fucose

C#CCO[C@@H]1O[C@@H](C)[C@@H](O)[C@@H](O)[C@@H]1O [compound 11, Compound 11]
AFL / Potency (AOL; valency 1): 4 fold vs L-fucose
AFL / Potency (AFL): 4 fold vs L-fucose
AFL / Potency (AAL; valency 1): 4 fold vs L-fucose
AFL / Potency (PA-IIL (LecB); valency 1): 4 fold vs L-fucose
RSL / Potency (RSL; valency 1): 8 fold vs L-fucose

C[C@@H]1O[C@@H](OCc2cn(CCN=[N+]=[N-])nn2)[C@@H](O)[C@H](O)[C@@H]1O [compound 12, Compound 12]
RSL / Potency (RSL; valency 1): 32 fold vs L-fucose

C[C@@H]1O[C@@H](OCc2cn(CCOCCOCCOCCn3cc(CO[C@@H]4O[C@@H](C)[C@@H](O)[C@@H](O)[C@@H]4O)nn3)nn2)[C@@H](O)[C@H](O)[C@@H]1O [compound 14, Compound 14]
RSL / Potency (RSL; valency 2): 128 fold vs L-fucose

C[C@@H]1O[C@@H](SCCO)[C@@H](O)[C@H](O)[C@@H]1O [compound 21, Compound 21]
RSL / Potency (AOL; valency 1): 4 fold vs L-fucose
AFL / Potency (AFL): 2 fold vs L-fucose
AFL / Potency (AAL; valency 1): 2 fold vs L-fucose
RSL / Potency (BC2L-C; valency 4 buffer and lectin concentration, valency 1): 4 fold vs L-fucose
RSL / Potency (PA-IIL (LecB); valency 1): 4 fold vs L-fucose
RSL / Potency (RSL; valency 1): 4 fold vs L-fucose

C[C@@H]1O[C@@H](SCCS(=O)(=O)O)[C@@H](O)[C@H](O)[C@@H]1O [compound 22, Compound 22]
RSL / Potency (BC2L-C; valency 4): 4 fold vs L-fucose
